Patent US12447213B2, “Modulation of novel immune checkpoint targets” (The Brigham and Women's Hospital, Inc., priority 2016, dated 2025)

Tests used:
Factor VII = conditions: LNP siRNA systems containing these lipids; cited from earlier work
Th17 cells [1] = experiment: Binding of recombinant His-tagged integrin αvβ3 to Th17 cells (FACS); set-up: species or system mice; conditions: pathogenic and non-pathogenic Th17
Method: FIG. 38. Integrin avb3 doesn't bind to Th17 cells (in Hank's balanced salt solution ((HBSS)) in the presence of Ca2+ and Mg2+. In vitro differentiated pathogenic and non-pathogenic Th17 cells were incubated with recombinant His-tagged integrin avb3 in HBSS buffer at room temperature for 30 min, washed twice, and then incubated with anti-His antibody for 10 min. Stained cells were analyzed by FACS.
FIG. 39. Integrin avb3 doesn't bind to Th17 cells (in phosphate buffered saline ((PBS)) in the absence of Ca2+ and Mg2+. In vitro differentiated pathogenic and non-pathogenic Th17 cells were incubated with recombinant His-tagged integrin αvβ3 in PBS buffer at room temperature for 30 min, washed twice, and then incubated with anti-His antibody for 10 min. Stained cells were analyzed by FACS.
Role of Gp49 Ligand Integrin αvβ3. Integrin αvβ3 is a known ligand of ILT-3 that induces human mast cell degranulation in a Gp49b dependent way. To determine the expression pattern of integrin αvβ3, FACs analysis was performed on various immune cell subsets. […] Expression of αv and β3 integrin were analyzed by FACS and qPCR on day 4. […] Stained cells were analyzed by FACS. […] Stained cells were analyzed by FACS. […] Next, the effect of plate-bound integrin was determined. […] Cytokine production from Th17 cells was measured by FACS on day 4.

Th17 cells [2] = experiment: Th17 differentiation in the presence of plate bound integrin αvβ3, cytokine production by FACS; format: cell-based, mice; conditions: 10 ug/ml, BSA as control
Method: FIG. 40. […] Anti-CD3/CD28 beads are used at a ratio of 1:1. Naïve T cells were differentiated into pathogenic or non-pathogenic Th17 cells in vitro with anti-CD3/CD28 Dynabeads (Thermo Fisher Scientific) in the presence of plate bound integrin avb3 (10 ug/ml) or BSA (10 ug/ml) as control. Cytokine production from Th17 cells were measured by FACS on day 4.
Role of Gp49 Ligand Integrin αvβ3. Integrin αvβ3 is a known ligand of ILT-3 that induces human mast cell degranulation in a Gp49b dependent way. To determine the expression pattern of integrin αvβ3, FACs analysis was performed on various immune cell subsets. CD4^+CD44^loCD62L^hi naïve CD4 T cells were sorted by FACS and cultured in vitro with plate-bound anti-CD3 (2 ug/ml) and anti-CD28 (2 ug/ml) plus the following polarizing cytokines: IL12 (20 ng/ml) for Th1 cells; IL4 (20 ng/ml) for Th2 cells; TGFb (5 ng/ml) for iTreg cells; IL27 (25 ng/ml) for Tr1 cells; TGFb (2 ng/ml) and IL6 (25 ng/ml) for non-pathogenic Th17; IL1 (20 ng/ml), IL6 (25 ng/ml) and IL23 (20 ng/ml) for pathogenic Th17. Expression of αv and β3 integrin were analyzed by FACS and qPCR on day 4. […] Stained cells were analyzed by FACS. […] Stained cells were analyzed by FACS. […] Next, the effect of plate-bound integrin was determined. […] Cytokine production from Th17 cells was measured by FACS on day 4.

naïve CD4 T cells = experiment: Gp49 expression on naïve CD4 T cells cultured with polarizing cytokines (FACS day 3); format: cell-based, mice; conditions: plate-bound anti-CD3/anti-CD28 plus polarizing cytokines
[3] = system: naïve CD4+ and CD8+ T cells; experiment: In vitro T-cell differentiation with IL-27: co-inhibitory receptor expression by real-time PCR and flow cytometry; format: cell-based, mice
Source text: FIG. 1A-1M. illustrates that IL-27 induces multiple co-inhibitory receptors on CD4^+ and CD8^+ T cells. CD4^+ and CD8^+ tumor-infiltrating lymphocytes (TILs) harvested from wild type (WT) mice bearing B16F10 melanoma tumors. FIG. 1A) Naïve T cells from either WT or IL-27ra deficient mice (IL27ra KO) were stimulated with anti-CD3/CD28 in the presence or absence of IL-27 as indicated. Expression of the indicated co-inhibitory molecules was examined by real-time PCR at 96 hr (CD4) and 72 hr (CD8), n≥3, error bars indicate s.e.m. FIG. 1B) Surface expression of co-inhibitory receptors on T cells stimulated as in (A) was determined by flow cytometry. Representative data are shown. FIG. 1C) Co-expression analysis of co-inhibitory and co-stimulatory receptor mRNA expression as determined by single cell RNAseq (316 and 516 for CD4^+ and CD8^+ respectively). For visualization purposes negative correlation values were set to zero. FIG. 1D) Protein expression by CyTOF for 23,656 CD4^+ and 36,486 CD8^+ TILs. Co-expression was analyzed using Spearman correlation. For visualization purposes negative correlation values were set to zero. FIG. 1E) TILs were harvested from WT and IL27ra KO mice bearing B16F10 melanoma and analyzed using CyTOF. CyTOF data were analyzed using vi-SNE. Polygons indicating clusters 1, 2 (in CD8^+ T cells), 3 and 4 (in CD4^+ T cells) are shown. FIG. 1F) The within groups sum of squared error (SSE) plot. […] FIG. 1G) Gap statistics for estimating the optimal number of clusters using k-means from 1 up to 12 clusters using bootstrapping and first SE max method. […] Visualization of cluster distribution using two-dimensional non-linear embedding of the protein expression profiles by t-SNE. FIG. 1I) CyTOF expression analysis of co-inhibitory and co-stimulatory receptors in TILs harvested from B16F10 melanoma tumor-bearing WT and […] mice from FIG. 1A and FIG. 1J using t-SNE. FIG. 1J) vi-SNE plot highlighting the distribution of CD8^+ TILs from WT (red) and IL27ra KO (blue) mice in clusters 1 and 2 and CD4^+ TILs from WT (red) and IL27ra KO (blue) mice in clusters 3 and 4. Pie charts show the distribution of WT or IL27ra KO CD8^+ and CD4^+ TILs in each cluster. Bar graphs show the mean of signal intensity for PD-1, Tim-3, Lag-3, and TIGIT from WT and IL27ra KO TILs. Error bars are the standard error and p-values for significance are calculated using standard t-test (**p<0.01). FIG. 1K) Expression of PD-1, Tim-3, Lag-3, TIGIT, and IL-10 on CD8^+ TILs obtained from WT and IL27ra KO mice bearing B16F10 melanoma was determined by flow cytometry. Thy1.1-IL-10 reporter mice crossed with WT and IL27ra KO mice were used for IL-10 expression analysis. FIG. 1L, FIG. 1M) Impact of IL-27 signaling on co-inhibitory receptor expression in TILs. Pie charts show the distribution of CD8^+ and CD4^+ TILs from WT and IL27ra KO mice bearing B16F10 melanoma between clusters 1 and 2 for CD8^+ and between clusters 3 and 4 for CD4^+ TILs as determined by k-means clustering of CyTOF protein expression data.
Flow cytometry: Single cell suspensions were stained with antibodies against CD4 (RM4-5), CD8 (53-6.7), PD-1 (RMP1-30), Lag-3 (C9B7W), TIGIT (GIGD7), and Tim-3 (5D12), Procr (eBio1560), and Pdpn (8.1.1) and were obtained from BioLegend (San Diego, Calif.). Fixable viability dye eF506 (eBioscience) was used to exclude dead cells. For intra-cytoplasmic cytokine staining, cells were stimulated with (PMA) (50 ng/ml, Sigma-Aldrich, MO), ionomycin (1 μg/ml, Sigma-Aldrich, MO). Permeabilized cells were then stained with antibodies against IL-2, TNF-α, IFN-γ or IL-10. All data were collected on a BD LSR II (BD Biosciences) and analyzed with FlowJo software (Tree Star).
In vitro T-cell differentiation: CD4^+ and CD8^+ T cells were purified from spleen and lymph nodes using anti-CD4 microbeads (Miltenyi Biotech) then stained in PBS with 0.5% BSA for 15 min on ice with anti-CD4, anti-CD8, anti-CD62L, and anti-CD44 antibodies (all from Biolegend, CA). […]

[4] = activation of naïve CD4+ and CD8+ T cells in vitro in the presence of IL-27
[5] = anti-CD3/CD28 in the presence of IL-27, CD4+ and CD8+ T cells

## 1,2-dilinoleyloxy-keto-N,N-dimethyl-3-aminopropane [DLinKDMA]
Factor VII
  gene silencing potency series: DLinKC2-DMA>DLinKDMA>DLinDMA>>DLinDAP

## CCCCC/C=C\C/C=C\CCCCCCCC(=O)OCC(CN(C)C)OC(=O)CCCCCCC/C=C\C/C=C\CCCCC (centres unmarked) [DLinDAP, 1,2-dilineoyl-3-dimethylammonium-propane]
Factor VII
  gene silencing potency series: DLinKC2-DMA>DLinKDMA>DLinDMA>>DLinDAP

## CCCCC/C=C\C/C=C\CCCCCCCCOCC(CN(C)C)OCCCCCCCC/C=C\C/C=C\CCCCC (centres unmarked) [DLinDMA, 1,2-dilinoleyloxy-3-N,N-dimethylaminopropane]
Factor VII
  gene silencing potency series: DLinKC2-DMA>DLinKDMA>DLinDMA>>DLinDAP

## CCCCC/C=C\C/C=C\CCCCCCCCC1(CCCCCCCC/C=C\C/C=C\CCCCC)OCC(CCN(C)C)O1 (centres unmarked) [DLinKC2-DMA, 1,2-dilinoleyl-4-(2-dimethylaminoethyl)-[1,3]-dioxolane]
Factor VII
  gene silencing potency series: DLinKC2-DMA>DLinKDMA>DLinDMA>>DLinDAP

## Integrin αvβ3: recombinant His-tagged integrin αvβ3, a known ligand of ILT-3
Th17 cells [1]; HBSS, in the presence of Ca2+ and Mg2+
  binding to Th17 cells: doesn't bind
Th17 cells [1]; PBS, in the absence of Ca2+ and Mg2+
  binding to Th17 cells: doesn't bind
Th17 cells [2]
  effect on Th17 cells (cytokine production, FACS day 4): does not appear to have much effect

## TGFb
naïve CD4 T cells
  Gp49 expression: inhibited

B1: IL-27: heterodimeric cytokine, member of the IL-12 family; rmIL-27 (25 ng/ml) (eBioscience) used in vitro (protein)
chain 1: FPTDPLSLQELRREFTVSLYLARKLLSEVQGYVHSFAESRLPGVNLDLLPLGYHLPNVSLTFQAWHHLSDSERLCFLATTLRPFPAMLGGLGTQGTWTSSEREQLWAMRLDLRDLHRHLRFQVLAAGFKCSKEEEDKEEEEEEEEEEKKLPLGALGGPNQVSSQVSWPQLLYTYQLLHSLELVLSRAVRDLLLLSLPRRPGSAWDS
chain 2: YTETALVALSQPRVQCHASRYPVAVDCSWTPLQAPNSTRSTSFIATYRLGVATQQQSQPCLQRSPQASRCTIPDVHLFSTVPYMLNVTAVHPGGASSSLLAFVAERIIKPDPPEGVRLRTAGQRLQVLWHPPASWPFPDIFSLKYRLRYRRRGASHFRQVGPIEATTFTLRNSKPHAKYCIQVSAQDLTDYGKPSDWSLPGQVESAPHKP
[3]; [4]
  Pdpn expression by qPCR and flow cytometry: induced
  Procr expression by qPCR and flow cytometry: induced
[3]; [5]
  Lag-3 expression, mRNA and protein level: induced
  TIGIT expression, mRNA and protein level: induced
  Tim-3 (Havcr2) expression, mRNA and protein level: induced
[3]; in vitro, anti-CD3/CD28 in the presence of IL-27
  PD-1 (Pdcd1) expression: not affected
